Source: EP0400562A1, “Pyrrolopyrimidines, their production and use as tumoricidal agents” (Takeda Chemical Industries, Ltd., priority 1989, dated 1990)
Values after ≈ are worked out from the molar mass of the structure shown.

Tested on: Human epidermoid carcinoma KB cells
Test: cell growth inhibiting effect in KB cells (MTT method)
Assay type: cell-based
Conditions: 72 hours culture with compound, absorbance at 590nm, concentration required to decrease the number of cells in the untreated control group by 50%
Protocol: The cell growth inhibiting effect (IC₅₀)of the compounds obtained in the Examples described below in KB cells was determined by the following method.
Human epidermoid carcinoma KB cells (1 x 10⁴ cells/ml) prepared according to a conventional method were inoculated into each well of the 96-microwell plate (0.1ml in a well) and subjected to standing culture at 37°C under 5% CO₂ for 24 hours. To this was added a solution of one of the compounds obtained in the Examples in 10% MEM (Nissui Pharmaceutical Co. Ltd. Japan), and subjected again to standing culture at 37°C under 5% CO₂ for 72 hours. Then the culture was pipetted out, and another 0.1ml of the solution of MTT (Dojin Laboratories Japan) in 10 % MEM (1.0mg/ml) was added and incubated at 37°C for 4 hours. Then 0.1ml of the […] (Wako Pure Chemicals, Japan) was added and incubated at 37°C for further 24 hours. The absorbance at 590nm was measured and the IC₅₀ value of the compound was defined as the concentration of the compound required to decrease the number of cells in the untreated control group by 50%.

CN(CCC1CNc2nc(N)nc(N)c21)c1ccc(C(=O)N[C@@H](CCC(=O)O)C(=O)O)cc1 (stereo partly drawn) [Example 4, N-[4-[N-[2-(2,4-diamino-6,7-dihydro-5H-pyrrolo[2,3-d]pyrimidin-5-yl)ethyl]-N-methyl]aminobenzoyl]-L-glutamic acid]
IC₅₀: 0.0025 µg/mL

Nc1nc(N)c2c(n1)NCC2CCNc1ccc(C(=O)N[C@@H](CCC(=O)O)C(=O)O)cc1 (stereo partly shown) [Example 10]
IC₅₀: 0.0025 µg/mL

CCCCCCCC(=O)Nc1nc(S)c2c(CNCc3ccc(C(=O)N[C@@H](CCC(=O)OCC)C(=O)OCC)cc3)c[nH]c2n1 [Example 13, diethyl N-[4-[N-(4-mercapto-2-octanoylamino-7H-pyrrolo[2,3-d]pyrimidin-5-ylmethyl)aminomethyl]benzoyl] -L-glutamate]
IC50 (Homo sapiens, read-out: IC₅₀): 5 ng/mL (≈ 7.8 nM)

CN(CCc1c[nH]c2nc(N)nc(N)c12)c1ccc(C(=O)N[C@@H](CCC(=O)O)C(=O)O)cc1 [Example 6, N-[4-[N-[2-(2,4-diamino-7H-pyrrolo[2,3-d]pyrimidin-5-yl)ethyl]-N-methyl]aminobenzoyl]-L-glutamic acid]
IC₅₀: 0.0013 µg/mL
